Test results as given in ChEMBL document CHEMBL3632594, “Synthesis of scutellarein derivatives to increase biological activity and water solubility” (Bioorg Med Chem, 2015).
pIC50: −log10 of the molar value. Converted amounts (≈) assume the structure as drawn.

Tests used:
[1] = Solubility of compound in water at 0.1 to 10 ug/ml by UV spectrophotometry relative to scutellarein; format: physicochemical; details: buffer
[2] = Solubility of compound in water at 0.1 to 10 ug/ml by UV spectrophotometry; format: physicochemical
[3] = Neuroprotective activity against H2O2-induced cytotoxicity in rat PC12 cells assessed as cell viability at 50 uM by MTT assay; format: functional; details: PC-12, read-out: INH
[4] = Neuroprotective activity against H2O2-induced cytotoxicity in rat PC12 cells assessed as cell viability at 25 uM by MTT assay; format: functional; details: PC-12, read-out: INH
[5] = Antithrombotic activity in New Zealand white rabbit platelet poor plasma assessed as increase in prothrombin time at 100 uM incubated for 3 mins by coagulometer based assay; format: functional, Oryctolagus cuniculus
[6] = Antioxidant activity assessed as DPPH radical scavenging by spectrophotometric analysis; format: physicochemical
[7] = Antithrombotic activity in New Zealand white rabbit platelet poor plasma assessed as prolongation of thrombin time at 100 uM incubated for 3 mins by coagulometer based assay; format: functional, Oryctolagus cuniculus
[8] = Antithrombotic activity in New Zealand white rabbit platelet poor plasma assessed as fibrinogen at 100 uM incubated for 3 mins by coagulometer based assay; format: functional, Oryctolagus cuniculus
[9] = Antithrombotic activity in New Zealand white rabbit platelet poor plasma assessed as increase in activated partial thromboplastin time at 100 uM incubated for 3 mins by coagulometer based assay; format: functional, Oryctolagus cuniculus

| SMILES | fold change (FC) [1] | solubility [2] [µg/mL] | pIC50 [6] | cell viability at 50 µM [3] [%] | neuroprotection (% cell viability vs H2O2 cytotoxicity) at 25 µM [4] [%] | PT [5] [s] | TT [7] [s] | Activity [8] [g/L] | APTT [9] [s] |
| --- | --- | --- | --- | --- | --- | --- | --- | --- | --- |
| CN1CCN(C(=O)Oc2ccc(-c3cc(=O)c4c(O)c(O)c(O)cc4o3)cc2)CC1 | 2.2 | 15.1 (≈ 36.5 µM) | 4.72 | 92.5 | 68.6 | 7.03 | 24.52 | 5.42 | 26.87 |
| CN(C)C(=O)Oc1ccc(-c2cc(=O)c3c(O)c(O)c(O)cc3o2)cc1 | 1.4 | 9.56 (≈ 26.8 µM) | 4.43 | 71.2 | 48.7 | 8.1 | 24.3 | 5.56 | 27.78 |
| O=C(O)[C@H]1O[C@@H](Oc2cc3oc(-c4ccc(O)cc4)cc(=O)c3c(O)c2O)[C@H](O)[C@@H](O)[C@@H]1O [SCUTELLARIN] | – | – | 4.55 | 79.2 | 53.1 | 6.28 | 23.08 | 6.13 | 34.18 |
| O=C(Oc1ccc(-c2cc(=O)c3c(O)c(O)c(O)cc3o2)cc1)N1CCOCC1 | 2.34 | 15.3 (≈ 38.4 µM) | 4.72 | 94.2 | 73.9 | 8.55 | 24.62 | 5.52 | 28.28 |
| O=C(COc1ccc(-c2cc(=O)c3c(O)c(O)c(O)cc3o2)cc1)N1CCOCC1 | 1.38 | 9.45 (≈ 22.9 µM) | 4.08 | 64.6 | 43.4 | 7.33 | 19.9 | 5.49 | 27.1 |
| CC(C)N(C(=O)Oc1ccc(-c2cc(=O)c3c(O)c(O)c(O)cc3o2)cc1)C(C)C | 1.27 | 8.67 (≈ 21 µM) | 4.77 | 93.4 | 71.7 | 7.97 | 24.57 | 5.65 | 27.97 |
| CN(C)CCCOc1ccc(-c2cc(=O)c3c(O)c(O)c(O)cc3o2)cc1 | 1.24 | 8.5 (≈ 22.9 µM) | 3.64 | 52.2 | 33.6 | 6.15 | 19.9 | 5.28 | 26.58 |

The remaining compounds from weak to strong by pIC50 [6], led by results:

| fold change (FC) [1] | solubility [2] [µg/mL] | pIC50 [6] | SMILES | cell viability at 50 µM [3] [%] | neuroprotection (% cell viability vs H2O2 cytotoxicity) at 25 µM [4] [%] | PT [5] [s] | TT [7] [s] | Activity [8] [g/L] | APTT [9] [s] |
| --- | --- | --- | --- | --- | --- | --- | --- | --- | --- |
| 1.25 | 8.56 (≈ 20.7 µM) | 3.56 | O=c1cc(-c2ccc(OCCCN3CCOCC3)cc2)oc2cc(O)c(O)c(O)c12 | 44.2 | 28.3 | 6.63 | 19.6 | 5.42 | 28.25 |
| 1.37 | 9.4 (≈ 23.5 µM) | 3.58 | O=c1cc(-c2ccc(OCCN3CCOCC3)cc2)oc2cc(O)c(O)c(O)c12 | 48.2 | 32.3 | 6.7 | 19.7 | 5.23 | 29.05 |
| 1.35 | 9.28 (≈ 26 µM) | 3.67 | CN(C)CCOc1ccc(-c2cc(=O)c3c(O)c(O)c(O)cc3o2)cc1 | 56.2 | 35.8 | 6.82 | 22.97 | 5.11 | 29.97 |
| 1.27 | 8.68 (≈ 22.5 µM) | 3.69 | CCN(CC)CCOc1ccc(-c2cc(=O)c3c(O)c(O)c(O)cc3o2)cc1 | 58.4 | 38.5 | 6.9 | 22.03 | 5.72 | 30.45 |
| 1.31 | 8.95 (≈ 22.4 µM) | 4.09 | CCN(CC)C(=O)COc1ccc(-c2cc(=O)c3c(O)c(O)c(O)cc3o2)cc1 | 66.4 | 44.7 | 7.45 | 20.92 | 5.37 | 26.4 |
| 1.36 | 9.32 (≈ 25.1 µM) | 4.09 | CN(C)C(=O)COc1ccc(-c2cc(=O)c3c(O)c(O)c(O)cc3o2)cc1 | 68.1 | 46.5 | 7.17 | 22.27 | 5.14 | 29.25 |
| 1.35 | 9.23 (≈ 24 µM) | 4.49 | CCN(CC)C(=O)Oc1ccc(-c2cc(=O)c3c(O)c(O)c(O)cc3o2)cc1 | 75.2 | 51.3 | 7.67 | 24.36 | 5.21 | 28.2 |
| 1 | – | 4.65 | O=c1cc(-c2ccc(O)cc2)oc2cc(O)c(O)c(O)c12 [SCUTELLAREIN] | 91.2 | 64.6 | 5.93 | 24.4 | 6.84 | 36.65 |
